Like-named read-outs stand apart in the source and are kept apart here.
Biological target: T1, CYP4A (Homo sapiens, UniProt Q02928)
T1 construct: purchased; host or cells: bacterial membranes ('bactosome')
T1 sequence (Q02928 5-519): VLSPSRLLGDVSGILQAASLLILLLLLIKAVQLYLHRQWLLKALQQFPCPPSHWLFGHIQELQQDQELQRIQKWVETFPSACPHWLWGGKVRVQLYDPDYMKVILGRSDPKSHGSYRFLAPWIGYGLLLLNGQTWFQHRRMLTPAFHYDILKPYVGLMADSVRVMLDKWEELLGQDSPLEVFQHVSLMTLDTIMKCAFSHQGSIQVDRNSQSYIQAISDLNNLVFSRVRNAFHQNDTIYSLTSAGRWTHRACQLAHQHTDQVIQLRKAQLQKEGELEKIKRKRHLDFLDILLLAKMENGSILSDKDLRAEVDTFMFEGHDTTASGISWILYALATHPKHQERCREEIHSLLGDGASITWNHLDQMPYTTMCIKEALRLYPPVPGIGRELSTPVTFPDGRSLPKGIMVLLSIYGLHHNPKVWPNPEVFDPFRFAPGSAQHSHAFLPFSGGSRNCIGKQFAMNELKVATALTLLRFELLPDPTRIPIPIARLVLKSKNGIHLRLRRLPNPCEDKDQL
Test: CYP4A enzyme assay (luminescence, Luciferin-ME)
Type: biochemical
Details: Compound concentration 5 μM
Protocol: The CYP4A inhibitory activity of the above compounds of the examples was measured. The reagents used in the experiment were commercially available, and were prepared and used when necessary. The device used for measuring activity was SpectraMax of MOLECULAR DEVICES.
CYP4A bactosome and the compounds to be evaluated (5 μM) were each diluted in assay buffer (100 mM KPO4, 0.1% BSA, 1 mM DTT) and mixed in a 384 well plate (white opaque polystyrene nontreated flat-bottom well), and reaction was carried out at room temperature for 15 minutes. To induce CYP4A reaction, 5 mM Luciferin-ME, NADPH Regeneration system (10× sol. A, 20× sol. B in assay buffer, Cat. Number: V865B, Promega) were sequentially added and mixed, and the reaction was carried out at room temperature for 30 minutes. Then, Luciferin Detection reagent was added thereto and reacted at room temperature for 15 minutes to stop the CYP4A reaction and induce a luminescence reaction. Finally, after measuring the luminescence value using a microplate reader, the inhibition of CYP4A activity by the compounds was evaluated by comparing the luminescence value from each well.

[1] = Greater than 90%, read-out: % Inhibition Greater than 90%
[2] = 70%-90%, read-out: % Inhibition 70%-90%

| inhibition at 5 µM [1] [%] | SMILES | further results |
| --- | --- | --- |
| > 90 | O=C(C1CCN(S(=O)(=O)c2ncn[nH]2)C1)N1CCN(c2ccnc3ccccc23)CC1 (centres unmarked) [Example 43, (1-((1H-1,2,4-triazol-5-yl)sulfonyl)pyrrolidin-3-yl)(4-(quinolin-4-yl)piperazin-1-yl)methanone] |  |
| > 90 | Cn1cc(S(=O)(=O)N2CCC(C(=O)N3CCN(c4ccnc5ccccc45)CC3)C2)cn1 (centres unmarked) [Example 44, (1-((1-methyl-1H-pyrazol-4-yl)sulfonyl)pyrrolidin-3-yl)(4-(quinolin-4-yl)piperazin-1-yl)methanone] |  |
| > 90 | Cc1n[nH]c(C)c1S(=O)(=O)N1CCC(C(=O)N2CCN(c3ccnc4ccccc34)CC2)C1 (centres unmarked) [Example 45, (1-((3,5-dimethyl-1H-pyrazol-4-yl)sulfonyl)pyrrolidin-3-yl)(4-(quinolin-4-yl)piperazin-1-yl)methanone] |  |
| > 90 | Cn1cnc(S(=O)(=O)N2CCC(C(=O)N3CCN(c4ccnc5ccccc45)CC3)C2)c1 (centres unmarked) [Example 46, (1-((1-methyl-1H-imidazol-4-yl)sulfonyl)pyrrolidin-3-yl)(4-(quinolin-4-yl)piperazin-1-yl)methanone] |  |
| > 90 | CC(=O)Nc1nc(C)c(S(=O)(=O)N2CCC(C(=O)N3CCN(c4ccnc5ccccc45)CC3)C2)s1 (centres unmarked) [Example 47, N-(4-methyl-5-((3-(4-(quinolin-4-yl)piperazine-1-carbonyl)pyrrolidin-1-yl)sulfonyl)thiazol-2-yl)acetamide] |  |
| > 90 | CC(=O)Nc1nc(C)c(S(=O)(=O)N2CC[C@@H](C(=O)N3CCN(c4ccnc5ccccc45)CC3)C2)s1 [Example 48, (R)—N-(4-methyl-5-((3-(4-(quinolin-4-yl)piperazine-1-carbonyl)pyrrolidin-1-yl)sulfonyl)thiazol-2-yl)acetamide] |  |
| > 90 | CC(=O)Nc1nc(C)c(S(=O)(=O)N2CC[C@H](C(=O)N3CCN(c4ccnc5ccccc45)CC3)C2)s1 [Example 49, (S)—N-(4-methyl-5-((3-(4-(quinolin-4-yl)piperazine-1-carbonyl)pyrrolidin-1-yl)sulfonyl)thiazol-2-yl)acetamide] |  |
|  | COC(=O)c1sccc1S(=O)(=O)N1CCC(C(=O)N2CCN(c3ccnc4ccccc34)CC2)C1 (centres unmarked) [Example 50, methyl 3-((3-(4-(quinolin-4-yl)piperazine-1-carbonyl)pyrrolidin-1-yl)sulfonyl)thiophene-2-carboxylate] | inhibition at 5 µM [2]: 70 to 90% |
|  | COc1ccc(S(=O)(=O)N2CCC(C(=O)N3CCN(c4ccnc5ccccc45)CC3)C2)cn1 (centres unmarked) [Example 51, (1-((6-methoxypyridin-3-yl)sulfonyl)pyrrolidin-3-yl)(4-(quinolin-4-yl)piperazin-1-yl)methanone] | inhibition at 5 µM [2]: 70 to 90% |
| > 90 | O=C(C1CCN(S(=O)(=O)c2cccc(F)n2)C1)N1CCN(c2ccnc3ccccc23)CC1 (centres unmarked) [Example 52, (1-((6-fluoropyridin-2-yl)sulfonyl)pyrrolidin-3-yl)(4-(quinolin-4-yl)piperazin-1-yl)methanone] |  |
|  | O=C(C1CCN(Cc2ccc([N+](=O)[O-])cc2)C1)N1CCN(c2ccnc3cc(F)ccc23)CC1 (centres unmarked) [Example 53, (4-(7-fluoroquinolin-4-yl)piperazin-1-yl)(1-(4-nitrobenzyl)pyrrolidin-3-yl)methanone] | inhibition at 5 µM [2]: 70 to 90% |
| > 90 | O=C(C1CCN(S(=O)(=O)c2ccc([N+](=O)[O-])cc2)CC1)N1CCN(c2ccnc3cc(F)ccc23)CC1 [Example 54, (4-(7-fluoroquinolin-4-yl)piperazin-1-yl)(1-((4-nitrophenyl)sulfonyl)piperidin-4-yl)methanone] |  |
| > 90 | CC(=O)Nc1cccc(S(=O)(=O)N2CCC(C(=O)N3CCN(c4ccnc5cc(F)ccc45)CC3)CC2)c1 [Example 55, N-(3-((4-(4-(7-fluoroquinolin-4-yl)piperazine-1-carbonyl)piperidin-1-yl)sulfonyl)phenyl)acetamide] |  |
|  | O=C(C1CCN(S(=O)(=O)c2ccc(Br)cc2)CC1)N1CCN(c2ccnc3cc(F)ccc23)CC1 [Example 56, (1-((4-bromophenyl)sulfonyl)piperidin-4-yl)(4-(7-fluoroquinolin-4-yl)piperazin-1-yl)methanone] | inhibition at 5 µM [2]: 70 to 90% |
| 0 | O=C(C1CCN(S(=O)(=O)c2ccc(-c3ccncc3)cc2)CC1)N1CCN(c2ccnc3cc(F)ccc23)CC1 [Example 57, (4-(7-fluoroquinolin-4-yl)piperazin-1-yl)(1-((4-(pyridin-4-yl)phenyl)sulfonyl)piperidin-4-yl)methanone] |  |
| > 90 | O=C(C1CCN(S(=O)(=O)c2ccc(-c3cccnc3)cc2)CC1)N1CCN(c2ccnc3cc(F)ccc23)CC1 [Example 58, (4-(7-fluoroquinolin-4-yl)piperazin-1-yl)(1-((4-(pyridin-3-yl)phenyl)sulfonyl)piperidin-4-yl)methanone] |  |
| > 90 | O=C(C1CCCN(S(=O)(=O)c2ccc(Cl)nc2)C1)N1CCN(c2ccnc3cc(F)ccc23)CC1 (centres unmarked) [Example 59, (1-((6-chloropyridin-3-yl)sulfonyl)piperidin-3-yl)(4-(7-fluoroquinolin-4-yl)piperazin-1-yl)methanone] |  |
| > 90 | CC(=O)Nc1ccc(S(=O)(=O)N2CCCC(C(=O)N3CCN(c4ccnc5cc(F)ccc45)CC3)C2)cn1 (centres unmarked) [Example 60, N-(5-((3-(4-(7-fluoroquinolin-4-yl)piperazine-1-carbonyl)piperidin-1-yl)sulfonyl)pyridin-2-yl)acetamide] |  |
| > 90 | O=C(C1CCCN(S(=O)(=O)c2ccc(N3CCOCC3)nc2)C1)N1CCN(c2ccnc3cc(F)ccc23)CC1 (centres unmarked) [Example 61, (4-(7-fluoroquinolin-4-yl)piperazin-1-yl)(1-((6-morpholinopyridin-3-yl)sulfonyl)piperidin-3-yl)methanone] |  |
| > 90 | CN1CCN(c2ccc(S(=O)(=O)N3CCCC(C(=O)N4CCN(c5ccnc6cc(F)ccc56)CC4)C3)cn2)CC1 (centres unmarked) [Example 62, (4-(7-fluoroquinolin-4-yl)piperazin-1-yl)(1-((6-(4-methylpiperazin-1-yl)pyridin-3-yl)sulfonyl)piperidin-3-yl)methanone] |  |
|  | O=C(C1CCN(S(=O)(=O)c2ccc(Br)cc2)CC1)N1CCN(c2ccnc3ccccc23)CC1 [Example 63, (1-((4-bromophenyl)sulfonyl)piperidin-4-yl)(4-(quinolin-4-yl)piperazin-1-yl)methanone] | inhibition at 5 µM [2]: 70 to 90% |
| > 90 | O=C(C1CCN(S(=O)(=O)c2ccc(-c3ccncc3)cc2)CC1)N1CCN(c2ccnc3ccccc23)CC1 [Example 64, (1-((4-(pyridin-4-yl)phenyl)sulfonyl)piperidin-4-yl)(4-(quinolin-4-yl)piperazin-1-yl)methanone] |  |
| > 90 | CC(=O)Nc1ccc(S(=O)(=O)N2CC(C(=O)N3CCN(c4ccnc5cc(F)ccc45)CC3)C2)cc1 [Example 65, N-(4-((3-(4-(7-fluoroquinolin-4-yl)piperazine-1-carbonyl)azetidin-1-yl)sulfonyl)phenyl)acetamide] |  |
| > 90 | O=C(C1CN(S(=O)(=O)c2ccc(O)cc2)C1)N1CCN(c2ccnc3cc(F)ccc23)CC1 [Example 66, (4-(7-fluoroquinolin-4-yl)piperazin-1-yl)(1-((4-hydroxyphenyl)sulfonyl)azetidin-3-yl)methanone] |  |
| > 90 | O=C(C1CN(S(=O)(=O)c2ccc([N+](=O)[O-])cc2)C1)N1CCN(c2ccnc3cc(F)ccc23)CC1 [Example 67, (4-(7-fluoroquinolin-4-yl)piperazin-1-yl)(1-((4-nitrophenyl)sulfonyl)azetidin-3-yl)methanone] |  |
|  | O=C(C1CN(S(=O)(=O)c2ccc(Br)cc2)C1)N1CCN(c2ccnc3cc(F)ccc23)CC1 [Example 68, (1-((4-bromophenyl)sulfonyl)azetidin-3-yl)(4-(7-fluoroquinolin-4-yl)piperazin-1-yl)methanone] | inhibition at 5 µM (50%-70%, read-out: % Inhibition 50%-70%): 50 to 70% |
| > 90 | O=C(C1CN(S(=O)(=O)c2ccc(-c3ccncc3)cc2)C1)N1CCN(c2ccnc3cc(F)ccc23)CC1 [Example 69, (4-(7-fluoroquinolin-4-yl)piperazin-1-yl)(1-((4-(pyridin-4-yl)phenyl)sulfonyl)azetidin-3-yl)methanone] |  |
| > 90 | CC(=O)Nc1ccc(S(=O)(=O)N2CC(C(=O)N3CCN(c4ccnc5ccccc45)CC3)C2)cc1 [Example 70, N-(4-((3-(4-(quinolin-4-yl)piperazine-1-carbonyl)azetidin-1-yl)sulfonyl)phenyl)acetamide] |  |
| > 90 | O=C(C1CN(S(=O)(=O)c2cccc([N+](=O)[O-])c2)C1)N1CCN(c2ccnc3cc(F)ccc23)CC1 [Example 71, (4-(7-fluoroquinolin-4-yl)piperazin-1-yl)(1-((3-nitrophenyl)sulfonyl)azetidin-3-yl)methanone] |  |
